The results in this text go back to US4001218A, “Penicillins” (Bayer Aktiengesellschaft, priority 1972, dated 1977).

In one assay the test system is Proteus morg. 932. The experiment in a line: MIC, test tube series dilution test, Proteus morg. 932. Particulars: 24 hours, 37°C. Type of assay: cell-based.
A further assay has as its system E. coli A 261. In words: MIC, test tube series dilution test, E. coli A 261. Type of assay: cell-based. The note with it: 24 hours, 37°C.
The subject of another assay is Staph. aureus 133. Format: cell-based, Staphylococcus aureus. The note with it: for MIC: Staph. aureus 133, 24 hours, 37°C; for Activity against Staph. aureus 133 (minimum inhibitory concentration): 24 hours' incubation.
The subject of the next assay is Psdm. aerug. Walter. The experiment in a line: MIC, test tube series dilution test, Psdm. aerug. Walter. Type of assay: cell-based, Pseudomonas aeruginosa. The note with it: Psdm. aerug. Walter; 24 hours, 37°C.
In the next assay the test system is Enterococcus 9790. In words: MIC, test tube series dilution test, Enterococcus 9790. Type of assay: cell-based. Particulars: 24 hours, 37°C.
The next assay has as its system E. coli 14. Type of assay: cell-based. Particulars: for MIC: E. coli 14, 24 hours, 37°C; for Activity against E. coli 14 (minimum inhibitory concentration): 24 hours' incubation.
Another assay concerns Proteus vulg. 1017. Format: cell-based, Proteus vulgaris. The note with it: for MIC: Proteus 1017, 24 hours, 37°C; for Activity against Proteus vulg. 1017 (minimum inhibitory concentration): 24 hours' incubation.
A further assay has as its system Psdm. aerug. F 41. The experiment in a line: MIC, test tube series dilution test, Psdm. aerug. F 41. Type of assay: cell-based, Pseudomonas aeruginosa. Particulars: for MIC: Psdm. aerug. F 41, 24 hours, 37°C; for Activity against Psdm. aerug. F 41 (minimum inhibitory concentration): 24 hours' incubation.
For another assay, the system named is Klebsiella 63. In words: MIC, test tube series dilution test, Klebsiella 63. Format: cell-based. Particulars: 24 hours' incubation.

SMILES strings stand for the structures.

Regarding `CC1(C)S[C@@H]2[C@H](NC(=O)[C@H](NC(=O)c3ccc(NC(=O)C4(O)CC4)cc3)c3ccccc3)C(=O)N2[C@H]1C(=O)O` [Example 2, sodium D(-)-α-(4-cyclopropanol-1-carbonyl-aminobenzoylamino)-benzylpenicillin], the MIC was greater than 256 U/ml with Proteus morg. 932, greater than 256 U/ml in the assay with E. coli A 261, less than 1 U/ml against Staph. aureus 133 and greater than 256 U/ml with Psdm. aerug. Walter.

As to `CC1(C)S[C@@H]2[C@H](NC(=O)[C@H](NC(=O)c3ccc(NC(=O)C4CC4)c([N+](=O)[O-])c3)c3ccccc3)C(=O)N2[C@H]1C(=O)O` [Example 4, sodium D(-)-α-(4-cyclopropanecarbonylamino-3-nitro-benzoylamino)-benzylpenicillin], the MIC against Proteus morg. 932 is greater than 256 U/ml; against E. coli A 261 it was greater than 256 U/ml; with Staph. aureus 133, less than 1 U/ml.

In the case of `CC1(C)S[C@@H]2[C@H](NC(=O)[C@H](NC(=O)c3ccc(NC(=O)CCC4CCCCC4)cc3)c3ccccc3)C(=O)N2[C@H]1C(=O)O` [Example 10, sodium D(-)-α-[4-(3-cyclohexanepropionylamino-benzoylamino)]-benzylpenicillin], the MIC in the assay with Enterococcus 9790 is listed as ~ 16 U/ml; with E. coli A 261, greater than 256 U/ml; against Staph. aureus 133 it was less than 1 U/ml; in the assay with E. coli 14 it was less than 1 U/ml.

As for `CC1(C)S[C@@H]2[C@H](NC(=O)[C@H](NC(=O)c3ccc(NC(=O)C4CCCCCC4)cc3)c3ccccc3)C(=O)N2[C@H]1C(=O)O` [Example 13, sodium D(-)-α-(4-cycloheptanecarbonylamino-benzoylamino)-benzylpenicillin], the MIC against Staph. aureus 133 and with E. coli 14 was less than 1 U/ml each time.

On to `CC1(C)S[C@@H]2[C@H](NC(=O)[C@H](NC(=O)c3ccc(NC(=O)c4cc([N+](=O)[O-])cc([N+](=O)[O-])c4)cc3)c3ccccc3)C(=O)N2[C@H]1C(=O)O` [Example 19], for which the MIC against Proteus vulg. 1017 is reported as ~ 16 U/ml; in the assay with E. coli A 261, greater than 256 U/ml; against Staph. aureus 133 it was less than 1 U/ml; with E. coli 14, less than 1 U/ml.

With `CNc1ccc(C(=O)N[C@@H](C(=O)N[C@@H]2C(=O)N3[C@@H]2SC(C)(C)[C@@H]3C(=O)O)c2ccccc2)cc1` [Example 43], the MIC is greater than 256 U/ml against Proteus morg. 932; greater than 256 U/ml in the assay with E. coli A 261; less than 1 U/ml in the assay with Staph. aureus 133; ~ 16 U/ml with E. coli 14; greater than 256 U/ml with Psdm. aerug. Walter.

Regarding `CC1(C)S[C@@H]2[C@H](NC(=O)[C@H](NC(=O)c3cccc(NC(=O)C4CC4)c3)c3ccccc3)C(=O)N2[C@H]1C(=O)O` [Example 51], the MIC against Proteus morg. 932 is on record as greater than 256 U/ml; in the assay with E. coli A 261, greater than 256 U/ml; in the assay on Staph. aureus 133, less than 1 U/ml; against E. coli 14, ~ 16 U/ml.

As to `CC1(C)S[C@@H]2[C@H](NC(=O)[C@H](NC(=O)C=Cc3ccc(NC=O)cc3)c3ccccc3)C(=O)N2[C@H]1C(=O)O` [Example 55], the MIC with Proteus vulg. 1017 is greater than 256 U/ml; in the assay with Staph. aureus 133, less than 1 U/ml.

Take `CC1(C)S[C@@H]2[C@H](NC(=O)[C@H](NC(=O)C=Cc3ccc(NC(=O)C4CCC4)cc3)c3ccccc3)C(=O)N2[C@H]1C(=O)O` [Example 57]: the MIC against E. coli A 261 is given as greater than 256 U/ml; against Staph. aureus 133, less than 1 U/ml; against E. coli 14, ~ 1 U/ml.

Consider `COc1cc(C(=O)Nc2ccc(SCC(=O)N[C@@H](C(=O)N[C@@H]3C(=O)N4[C@@H]3SC(C)(C)[C@@H]4C(=O)O)c3ccccc3)cc2)cc(OC)c1OC` [Example 58], for which the results for the MIC in the assay on Proteus vulg. 1017, with Staph. aureus 133 and against E. coli 14 were greater than 256 U/ml, less than 1 U/ml and ~ 16 U/ml, respectively.

With `CC1(C)S[C@@H]2[C@H](NC(=O)[C@H](NC(=O)CSc3ccc(NC=O)cc3)c3ccccc3)C(=O)N2[C@H]1C(=O)O` [Example 59], the MIC against Proteus morg. 932 is reported as greater than 256 U/ml; with Psdm. aerug. F 41 it was greater than 256 U/ml; in the assay on E. coli A 261 it was greater than 256 U/ml; against Staph. aureus 133, less than 1 U/ml; in the assay on E. coli 14 it was ~ 4 U/ml; in the assay with Psdm. aerug. Walter it was greater than 256 U/ml.

For `CC1(C)S[C@@H]2[C@H](NC(=O)[C@H](NC(=O)CSc3ccc(NC(=O)C4CC4)cc3)c3ccccc3)C(=O)N2[C@H]1C(=O)O` [Example 60], the MIC against Psdm. aerug. F 41 is given as ~ 256 U/ml; with Proteus vulg. 1017 it was ~ 4 U/ml; in the assay on E. coli A 261 it was greater than 256 U/ml.

Turning to `CC1(C)S[C@@H]2[C@H](NC(=O)[C@H](NC(=O)CSc3ccc(NC(=O)C4CCC4)cc3)c3ccccc3)C(=O)N2[C@H]1C(=O)O` [Example 61], the MIC against Enterococcus 9790 was ~ 16 U/ml; in the assay on Proteus morg. 932 it was greater than 256 U/ml; in the assay on E. coli A 261, greater than 256 U/ml; in the assay on Staph. aureus 133, less than 1 U/ml; in the assay with Psdm. aerug. Walter, greater than 256 U/ml.

Take `CC1(C)S[C@@H]2[C@H](NC(=O)[C@H](NC(=O)CNC(=O)c3ccc(NC=O)cc3)c3ccccc3)C(=O)N2[C@H]1C(=O)O` [Example 63]: the MIC with Enterococcus 9790 is given as ~ 4 U/ml; with Proteus morg. 932, greater than 256 U/ml; in the assay with E. coli A 261, greater than 256 U/ml; in the assay on Staph. aureus 133, less than 1 U/ml; against E. coli 14, ~ 1 U/ml.

For `CC1(C)S[C@@H]2[C@H](NC(=O)[C@H](NC(=O)CNC(=O)c3ccc(NC(=O)C4CCC4)cc3)c3ccccc3)C(=O)N2[C@H]1C(=O)O` [Example 65], the results for the MIC with Proteus morg. 932, against E. coli A 261 and against Staph. aureus 133 were greater than 256 U/ml, greater than 256 U/ml and less than 1 U/ml, respectively.

As for `CC1(C)S[C@@H]2[C@H](NC(=O)[C@H](NC(=O)CNC(=O)c3ccc(NC(=O)C4=CCCCC4)cc3)c3ccccc3)C(=O)N2[C@H]1C(=O)O` [Example 67], the MIC against Proteus vulg. 1017 is greater than 256 U/ml; against Staph. aureus 133, less than 1 U/ml.

As for `CC1(C)S[C@@H]2[C@H](NC(=O)[C@H](NC(=O)CNC(=O)c3ccc(N=[N+]=[N-])cc3)c3ccccc3)C(=O)N2[C@H]1C(=O)O` [Example 68], the MIC in the assay on E. coli A 261 is listed as greater than 256 U/ml; against Staph. aureus 133, less than 1 U/ml.

As to `CC1(C)S[C@@H]2[C@H](NC(=O)[C@H](NC(=O)CNC(=O)c3ccc([N+](=O)[O-])cc3)c3ccccc3)C(=O)N2[C@H]1C(=O)O` [Example 69], the MIC against E. coli A 261 is reported as greater than 256 U/ml; against Staph. aureus 133, less than 1 U/ml.

For `CC1(C)S[C@@H]2[C@H](NC(=O)[C@H](NC(=O)CNC(=O)c3ccc(N)cc3)c3ccccc3)C(=O)N2[C@H]1C(=O)O` [Example 70], the MIC against Proteus morg. 932 is given as greater than 256 U/ml; against E. coli A 261 it was greater than 256 U/ml; against Staph. aureus 133, less than 1 U/ml; against Psdm. aerug. Walter, greater than 256 U/ml.

On to `CC1(C)S[C@@H]2[C@H](NC(=O)[C@H](NC(=O)c3cc(NC=O)cc(NC=O)c3)c3ccccc3)C(=O)N2[C@H]1C(=O)O` [Example 71], for which the MIC in the assay on Proteus morg. 932 is greater than 256 U/ml; against E. coli A 261, greater than 256 U/ml; in the assay on Staph. aureus 133, less than 1 U/ml; in the assay with E. coli 14 it was ~ 4 U/ml.

`CC1(C)S[C@@H]2[C@H](NC(=O)[C@H](NC(=O)c3cc(NC(=O)C4CC4)cc(NC(=O)C4CC4)c3)c3ccccc3)C(=O)N2[C@H]1C(=O)O` [Example 72]: the MIC is ~ 16 U/ml in the assay with Enterococcus 9790, greater than 256 U/ml against Proteus morg. 932, greater than 256 U/ml against E. coli A 261 and less than 1 U/ml in the assay with Staph. aureus 133.

For the compound `CC1(C)S[C@@H]2[C@H](NC(=O)[C@H](NC(=O)c3cc(NC(=O)C4CCC4)cc(NC(=O)C4CCC4)c3)c3ccccc3)C(=O)N2[C@H]1C(=O)O` [Example 73], the MIC with E. coli A 261 is on record as greater than 256 U/ml; against Staph. aureus 133, less than 1 U/ml.

For the compound `CC1(C)S[C@@H]2[C@H](NC(=O)[C@H](NC(=O)c3ccc(NC(=O)C4CC4)c(NC(=O)C4CC4)c3)c3ccccc3)C(=O)N2[C@H]1C(=O)O` [Example 75], the MIC against Enterococcus 9790 is listed as ~ 16 U/ml; with Proteus morg. 932, greater than 256 U/ml; in the assay on E. coli A 261 it was greater than 256 U/ml; against Staph. aureus 133, less than 1 U/ml.

Turning to `COc1cc(C(=O)Nc2ccc(C=CC(=O)N[C@@H](C(=O)N[C@@H]3C(=O)N4[C@@H]3SC(C)(C)[C@@H]4C(=O)O)c3ccccc3)cc2)cc(OC)c1OC` [Example 79, sodium D(-)-α-[4-(3,4,5-trimethoxybenzoylamino-cinnamoylamino)]-benzylpenicillin], the “Activity against Klebs. 63 (minimum inhibitory concentration)” value in the assay with Klebsiella 63 is listed as 32-64 U/ml. Besides, the “Activity against Psdm. aerug. F 41 (minimum inhibitory concentration)” value in the assay with Psdm. aerug. F 41 is 8-16 U/ml. Besides, the “Activity against Proteus vulg. 1017 (minimum inhibitory concentration)” value in the assay on Proteus vulg. 1017 is 128-256 U/ml. In addition, the “Activity against Staph. aureus 133 (minimum inhibitory concentration)” value with Staph. aureus 133 is given as less than 1 U/ml. Moreover, in the assay on E. coli 14, the “Activity against E. coli 14 (minimum inhibitory concentration)” value is 1-2 U/ml.

As to `CC1(C)S[C@@H]2[C@H](NC(=O)[C@H](NC(=O)c3ccc(NC(=O)c4ccc(S(C)(=O)=O)cc4)cc3)c3ccccc3)C(=O)N2[C@H]1C(=O)O` [Example 80, sodium D(-)-α-[4-(p-methylsulphonylbenzoylamino)-benzoylamino]-benzylpenicillin], in the assay on Klebsiella 63, the “Activity against Klebs. 63 (minimum inhibitory concentration)” value is listed as 32-64 U/ml. Moreover, the “Activity against Psdm. aerug. F 41 (minimum inhibitory concentration)” value with Psdm. aerug. F 41 is 32-64 U/ml. The “Activity against Proteus vulg. 1017 (minimum inhibitory concentration)” value with Proteus vulg. 1017 is 128-256 U/ml. In addition, the “Activity against Staph. aureus 133 (minimum inhibitory concentration)” value in the assay with Staph. aureus 133 is given as less than 1 U/ml. Also, the “Activity against E. coli 14 (minimum inhibitory concentration)” value in the assay on E. coli 14 is 4-8 U/ml.

For `CC1(C)S[C@@H]2[C@H](NC(=O)[C@H](NC(=O)c3ccc(NC(=O)C4CCCC4)cc3)c3ccc(O)cc3)C(=O)N2[C@H]1C(=O)O` [Example 81], in the assay on Klebsiella 63, the “Activity against Klebs. 63 (minimum inhibitory concentration)” value was 128-256 U/ml. Further, the “Activity against Psdm. aerug. F 41 (minimum inhibitory concentration)” value in the assay with Psdm. aerug. F 41 is reported as 32-64 U/ml. Further, the “Activity against Proteus vulg. 1017 (minimum inhibitory concentration)” value with Proteus vulg. 1017 is listed as greater than 256 U/ml. Moreover, in the assay on Staph. aureus 133, the “Activity against Staph. aureus 133 (minimum inhibitory concentration)” value is less than 1 U/ml. In the assay on E. coli 14, the “Activity against E. coli 14 (minimum inhibitory concentration)” value is given as 4-8 U/ml.
